Source: paper PMC12980303, “Development of a novel risk score reflecting the relative harm potential of synthetic cannabinoids based on prevalence estimates, well‐documented intoxication cases and basic pharmacological data” (Addiction (Abingdon, England), 2025)
Like-named read-outs stand apart in the source and are kept apart here. Marks after values point to notes of the source that are not given here.

Columns and labels:
hCB1 receptor [1] = target: T1, hCB1 receptor (Homo sapiens, UniProt P21554); assay: functional [35S]GTPγS hCB1 activation assay; format: biochemical
Protocol: Receptor assays were performed on three different days and each concentration was tested in duplicate.

[2] = risk score from prevalence in routine forensic samples and intoxication cases (G1, PSS, TSS); parameters: species or system human
Description: Therefore, higher values indicate substances with a higher risk. […] To take into account the severity of symptoms and the contribution of the specific NPS, two further summands were introduced. The first is based on the PSS, the second on the TSS. Again, higher values were associated with more severe symptoms and a stronger role of the NPS in causing the symptoms.
The risk score is composed of three components (parts G1, G2 and G3) and was designed as follows: (1) Gx=G1x+G2x+G3x,
Equation 2 takes into consideration several components: the number of intoxications with SCRA x in quarter k over the total number of intoxications of all investigated SCRAs in the same quarter; the number of serum/blood samples positive for SCRA x over the total number of serum/blood samples positive for all SCRAs plus the number of urine samples positive for SCRA x over the total number of urine samples positive for all SCRAs (this is divided by two to account for the two different sample types); and the number of quarters in which the SCRA x was prevalent. (2) G1x=∑k=1gak/bk/ck/dk+ek/fk/2/h+i
Consequently, equation 2 was mathematically rearranged. To further simplify the equation and reduce the formula signs, in equation 3 the following simplifications were taken: a/b=ai , c/d=as and e/f=au .
The sum of these quotients was divided by the number of all prevalent quarters (q p ). Prevalent quarters were defined as quarters in which on average the substance was detected in more than 5% of the positive serum and urine samples. If a poisoning occurred in a quarter in which the substance was not prevalent, the number of these quarters was added (q i ). This part of the score has similarities with an OR [42]. If the proportion of routine samples in a given quarter in which an intoxication with the respective substance occurred was zero (a s + a u = 0), a value of 0.01 was used for that quarter in the calculation of the quotient to avoid division by zero.
(§1) For part G2, the severity of the intoxication caused by the respective SCRA x was assessed on the basis of reported symptoms and follow‐up information using the PSS [20]. The PSS classifies the intoxication severity into five levels: (0) no, (1) mild, (2) moderate, (3) severe, and (4) fatal intoxication. […] For this purpose, the mean value of the PSS of all intoxications with the respective SCRA x was calculated ( G2x) .
(§2) For part G3, the involvement of the SCRA in the respective intoxications was assessed. This was evaluated on the basis of the TSS [21]. Elliott et al. developed the TSS to assess and classify the contribution of NPS in fatalities. In the present study, the TSS was determined to weigh the involvement of the investigated SCRA in the intoxication and the contribution of the SCRA to the observed symptoms. To determine the TSS value, factors such as the determined concentration of the SCRA, the presence of other recreational drugs or medicinal drugs, the general health of the patient and the consumption circumstances need to be considered. […] In cases with more than one drug detected, a TSS of 3 was only assigned where other compounds were present at concentrations below the range in which relevant effects are to be expected.
For the risk score, the mean value of the TSS of all intoxications with substance x was calculated ( G3x) . Analogous to the value of G2x , the value of G3x can theoretically be between 1 and 3. With a value of ‘1’, substance x was not mainly responsible for the symptoms in all of the intoxications (low level of significance), and with a value of ‘3’, it was the main cause in every poisoning in which it was detected.

[3] = clinical symptoms, PSS and TSS assessment of individual intoxication cases; format: in vivo, human; parameters: key to PSS: 0: no; 1: mild; 2: moderate; 3: severe; 4: fatal intoxication
Protocol: Forty‐eight cases were included in the present study.
The PSS was determined based on the described symptoms.
as §1, §2

hCB1 receptor [4] = target: T1, hCB1 receptor; conditions: ref Wouters et al. [29], cited from earlier work
[5] = LC–MS/MS analysis of serum and urine samples of intoxication cases; format: in vivo, human; conditions: for Concentration in serum: patient serum; for Finding in urine: patient urine
Protocol: The data on intoxication cases used for the development of this risk score were obtained from a prospective study. This study included patients who were treated in an emergency department room following the consumption of an NPS. Clinical symptoms and follow‐up information were documented using a structured questionnaire completed by the attending physicians. The methodology has been previously published. Residual serum (obtained from venous blood) and urine samples, accompanied by the completed questionnaires, were sent to the Poisons Information Center Freiburg for further analysis. The toxicological analyses of serum and urine samples were conducted at the Institute of Forensic Medicine Freiburg. No data was available on previous consumption patterns or potential development of tolerance after continued misuse. The study was conducted in accordance with the Declaration of Helsinki and approved by the regional ethics committee of the University of Freiburg (no. 235/13_130683). The intoxication cases included in this study are those in which SCRA use was confirmed by liquid chromatography tandem mass spectrometry (LC–MS/MS).
Serum/blood and urine analyses were conducted at the Institute of Forensic Medicine Freiburg using previously published LC–MS/MS methods, that were modified by adding further analytes present in ‘legal‐high’ products (‘herbal blends’, ‘C‐liquids’ or ‘research chemicals’), and covered approximately 100 different SCRAs. Detailed information can be found in the Supporting Information.
Urine samples were analysed according to previously published and validated method by Franz et al.^2. For sample preparation 0.5 mL of phosphate buffer (pH 6) and 30 μL of β-glucuronidase were added to 0.5 mL of urine. Incubation was for 60 min at 45°C. This was followed by protein precipitation using 1.5 mL acetonitrile containing the internal standard (c = 2 ng/mL) and 0.56 mL 10 M ammonium formate solution, followed by shaking and centrifugation. 1 mL of the organic phase was transferred into an autosampler vial and evaporated to dryness under N2. The samples were reconstituted in 200 μL mobile phase.
Urine sample analysis was performed on a Dionex UltiMate® 3000RS UHPLC (Thermo Scientific, Dreieich, Germany) coupled to an API 5000^TM triple quadrupole instrument with a TurboIonSpray® interface (Sciex, Darmstadt, Germany). Separation was performed on a Luna C18 100 Å (150 x 2 mm, 5 μm) column with the mobile phase consisting of 0.2% HCOOH and 2 mmol/L NH^4+HCOO^− in water (A) and acetonitrile (B).

T1 sequence (P21554 whole entry): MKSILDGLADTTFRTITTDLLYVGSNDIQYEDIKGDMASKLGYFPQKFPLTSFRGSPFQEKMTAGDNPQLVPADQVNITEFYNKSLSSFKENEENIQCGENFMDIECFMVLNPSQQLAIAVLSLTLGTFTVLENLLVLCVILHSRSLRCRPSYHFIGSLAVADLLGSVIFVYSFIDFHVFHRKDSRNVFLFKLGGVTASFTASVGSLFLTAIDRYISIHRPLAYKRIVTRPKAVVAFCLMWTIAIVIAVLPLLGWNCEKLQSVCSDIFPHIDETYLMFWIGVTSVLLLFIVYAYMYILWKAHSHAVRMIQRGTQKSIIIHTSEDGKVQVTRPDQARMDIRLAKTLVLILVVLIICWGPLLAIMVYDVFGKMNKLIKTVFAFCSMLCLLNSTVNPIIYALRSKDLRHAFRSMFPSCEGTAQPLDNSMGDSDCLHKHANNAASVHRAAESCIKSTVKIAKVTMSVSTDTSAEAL

**Q.** Which results are given for CC(C)C(NC(=O)c1nn(CC2CCCCC2)c2ccccc12)C(N)=O (stereo not drawn)?
**A.** EC50 (hCB1 receptor [1]): 5.09 nM; Emax (hCB1 receptor [1]; read-out: [35S]‐GTPγS assay Emax [%] (95% CI)): 124%; G total (risk score) ([2]; G1+G2+G3, higher value = greater toxicological risk): 7.2; G2 ([2]; mean Poison Severity Score (PSS) of all intoxications with the SCRA): 2.1; G3 ([2]; mean Toxicological Significance Score (TSS) of all intoxications with the SCRA): 2.3; G1 ([2]; proportion in intoxication cases relative to prevalence in routine serum/blood and urine samples per quarter, 2013–2021, >1 over‐represented in intoxications): 2.8; PSS ([3]; intoxication case A): 3; Recorded symptoms ([3]; intoxication case A, 3‐MMC also present): severe bradycardia (35 bpm/minutes); Recorded symptoms ([3]; intoxication case A, 3‐MMC also present, listed as AB-CHMINACA): bradycardia (35 bpm/min), seizure, hypokalaemia; PSS ([3]; intoxication case B): 2; Recorded symptoms ([3]; intoxication case B, four other SCRAs at very low concentrations): disorientation and miosis; EC50 (hCB1 receptor [4]; read-out: βarr2 assay EC50 [nM] (95% CI)): 3.45 nM; βarr2 assay Emax [%] (95% CI) (hCB1 receptor [4]; relative to CP‐55940, originally normalised to JWH‐018, corrected with factor 0.3268): 1195 ^a (1097–1331) %; Concentration in serum ([5]; intoxication case A (AB‐CHMINACA)): 9.5 ng/mL; Finding in urine ([5]; intoxication case A): positive; Concentration in serum ([5]; intoxication case B (AB‐CHMINACA)): 27 ng/mL; Concentration in serum ([5]; intoxication case B (AB‐CHMINACA), listed as AB-CHMINACA): ca. 27 ng/mL; Finding in urine ([5]; intoxication case B): positive
